Measured values taken from publication PMC7118210 (Frontiers in Pharmacology, 2020).
Like-named read-outs stand apart in the source and are kept apart here.

Assay: Single-dose pharmacokinetics in rats (plasma, UHPLC/MS/MS)
Assay type: in vivo, Sprague Dawley rats
Details: for MRT last: read-out: MRT0-t; for MRT inf: read-out: MRT0-∞
Excerpt: Sixty healthy adult Sprague Dawley rats (180-220 g, half male and female) were purchased from the Guangdong Medical Laboratory Animal Center (Guangzhou, Guangdong, China). Thirty Beagle dogs (10-14 kg, half male and female) were purchased from the […] Laboratory Animal Science & Technology Co., Ltd. (Gaoyao, Guangdong, China). All animals were housed under humanized conditions with free access to food and water, and acclimated to the living conditions for at least one week prior to experimentation at the Laboratory Animal Center of the School of Life Sciences, Sun Yat-sen University. Environmental conditions were maintained at 20°C-25°C, 55% ± 15% relative humidity, 12-h light/dark cycles, and 12 air changes per hour. Prior to experimentation, the animals were fasted overnight with water available ad libitum. All animals were healthy based on physical examination and laboratory analyses performed before and after the experiments. At the end of the experiments, the dogs were returned to the Laboratory Animal Center of School of Life Sciences, Sun Yat-sen University. […] All blood samples were transferred into heparin-treated centrifuge tubes and centrifuged for 10 min at 4,000 rpm and 4°C. All human urine samples were mixed and transferred (4 ml) into storage tubes. All biological samples were stored at -80°C. […] The optimal volume and activity in unit volume of enzyme solution [0.2 M acetic acid/water solution: 0.2 M ammonium acetate/water solution, 15:35 (v/v)] were determined through a pretest of the enzyme (rat plasma, 10 μl, 10 U μl^-1; dog plasma, 10 μl, 10 U μl^-1; human plasma, 20 μl, 20 U μl^-1; human urine, 10 μl, 10 U μl^-1). After enzyme incubation, 10 μl of IS solution was added to the plasma and urine samples (2 μg ml^-1 quercetin 3-β-D-glucoside for rat and dog plasma; 583 ng ml^-1 naringin-D4 and 160 ng ml^-1 naringenin-D4 for human plasma; and 9,710 ng ml^-1 naringin-D4 and 6,000 ng ml^-1 naringenin-D4 for human urine). To each fecal sample, 9-fold methanol-normal saline (2:1, v/v) was added, mixed (18,000 rpm, 15 min) by vortexing and centrifuged (10 min, 9,000 rpm, 4°C). Next, 10 μl IS solution (971 ng ml^-1 naringin-D4 and 600 ng ml^-1 naringenin-D4) was added to the supernatants of feces (200 μl) without enzyme incubation. […] The solid material was dissolved with acetonitrile-water (1:1, v/v) and injected into the ultra high-performance liquid chromatography coupled with triple quadrupole mass spectrometry (UHPLC/MS/MS) system as described below. The analysis of nonclinical and clinical samples was performed with a UHPLC/MS/MS system that consisted of a Shimadzu Nexera X2 ultra high-performance liquid chromatography (UHPLC) (Shimadzu Corp., Kyoto, Japan) coupled with an AB Sciex API4000 triple-quadrupole mass spectrometry (MS/MS) system (AB Sciex, Foster City, CA, USA) equipped with an electrospray ionization source and controlled by Analyst (v. 1.6.2) software. […] The injection volume was 10 μl with the flow rate of 0.3 ml min^-1 for plasma, and 0.4 ml min^-1 for urine and feces. The compounds were detected by multiple reaction monitoring in the negative ion electrospray mode. The electrospray source conditions were as follows: ion source gas1 30 psi, ion source gas2 60 psi, curtain gas 20 psi, collisionally activated dissociation (CAD) gas 8 psi, temperature 500°C, and ion spray voltage -4,500 V. Zero air was used for ion source gas1 and ion source gas2 and nitrogen for curtain gas and CAD gas. […] All pharmacokinetic and excretion parameters were expressed as mean ± standard deviation (SD). All mean and SD values were reported to three significant figures. The pharmacokinetic parameters were calculated using the Phoenix WinNonlin software (Version 6.4, Pharsight Corp., Cary, NC, USA) and compared using the Student's t-test (p < 0.05) in SPSS 18.0 (SPSS Inc., Chicago, IL, USA). […]

[1] = both sexes, Sprague Dawley, rat, plasma, iv, 42 mg/kg
[2] = both sexes, Sprague Dawley, rat, plasma, iv, 42 mg/kg, read-out: Cmax
[3] = both sexes, Sprague Dawley, rat, plasma, iv, 42 mg/kg, read-out: Vd
[4] = female, Sprague Dawley, rat, plasma, iv, 42 mg/kg
[5] = female, Sprague Dawley, rat, plasma, iv, 42 mg/kg, read-out: Cmax
[6] = male, Sprague Dawley, rat, plasma, iv, 42 mg/kg
[7] = male, Sprague Dawley, rat, plasma, iv, 42 mg/kg, read-out: Cmax
[8] = naringenin after naringin 168 mg kg^-1 p.o. single dose, rat
[9] = both sexes, Sprague Dawley, rat, plasma, po, 10.5 mg/kg
[10] = both sexes, Sprague Dawley, rat, plasma, po, 21 mg/kg
[11] = both sexes, Sprague Dawley, rat, plasma, po, 42 mg/kg
[12] = both sexes, Sprague Dawley, rat, plasma, po, 168 mg/kg
[13] = female, Sprague Dawley, rat, plasma, po, 10.5 mg/kg
[14] = female, Sprague Dawley, rat, plasma, po, 21 mg/kg
[15] = female, Sprague Dawley, rat, plasma, po, 42 mg/kg
[16] = female, Sprague Dawley, rat, plasma, po, 168 mg/kg
[17] = male, Sprague Dawley, rat, plasma, po, 10.5 mg/kg
[18] = male, Sprague Dawley, rat, plasma, po, 21 mg/kg
[19] = male, Sprague Dawley, rat, plasma, po, 42 mg/kg
[20] = male, Sprague Dawley, rat, plasma, po, 168 mg/kg
[21] = naringin 168 mg kg^-1 p.o. single dose, rat

O=C1C[C@@H](c2ccc(O)cc2)Oc2cc(O)cc(O)c21 [naringenin, Naringenin]
AUC(0-inf) [1]: 2390 ± 1110 ng·h/mL | AUC(0-t) [1]: 2360 ± 1120 ng·h/mL | Tmax [1]: 0.04 ± 0.021 h | clearance [1]: 390 mL/min/kg | half-life [1]: 2.45 ± 1.38 h | Cmax [2]: 3980 ± 2510 ng/mL | MRT last [1]: 3.36 ± 2.11 h | MRT inf [1]: 3.66 ± 2.14 h | Vd [3]: 88.3 ± 113 L/kg | half-life (both sexes, Sprague Dawley, rat, plasma, oral, naringenin in rats, studies overall): 2.31 ± 1.21 h | Tmax [4]: 0.043 ± 0.025 h | half-life [4]: 2.91 ± 1.87 h | Cmax [5]: 2430 ± 1550 ng/mL | AUC(0-inf) [6]: 3010 ± 982 ng·h/mL | AUC(0-t) [6]: 2990 ± 986 ng·h/mL | Cmax [7]: 5540 ± 2400 ng/mL | CL [8]: 327 ± 288 mL/min/kg | Vd [8]: 93.4 ± 121 L/kg | lag-time in plasma (rats, after p.o. naringin): 0.701 ± 0.523 h | time for concentrations to increase to Cmax after the lag-time (rats, after p.o. naringin): 2.93 ± 2.01 h

C[C@@H]1O[C@@H](O[C@H]2[C@H](Oc3cc(O)c4c(c3)O[C@H](c3ccc(O)cc3)CC4=O)O[C@H](CO)[C@@H](O)[C@@H]2O)[C@H](O)[C@H](O)[C@H]1O [naringin, Naringin]
AUC(0-inf) [1]: 18100 ± 7550 ng·h/mL | AUC(0-t) [1]: 18100 ± 7580 ng·h/mL | Tmax [1]: 0.03 h | clearance [1]: 48.3 mL/min/kg | half-life [1]: 1.62 ± 1.18 h | Cmax [2]: 88500 ± 51000 ng/mL | MRT last [1]: 0.496 ± 0.382 h | MRT inf [1]: 0.57 ± 0.476 h | Vd [3]: 8.29 ± 10 L/kg | half-life (both sexes, Sprague Dawley, rat, plasma, po): < 1 h | AUC(0-inf) [9]: 35.7 ± 29.3 ng·h/mL | AUC(0-t) [9]: 32.7 ± 27.7 ng·h/mL | Tmax [9]: 1.5 ± 2.35 h | half-life [9]: 0.328 ± 0.275 h | Cmax (both sexes, Sprague Dawley, rat, plasma, po, 10.5 mg/kg, read-out: Cmax): 31.7 ± 13.2 ng/mL | MRT last [9]: 0.741 ± 0.423 h | MRT inf [9]: 1.22 ± 0.297 h | AUC(0-inf) [10]: 38.4 ± 21.4 ng·h/mL | AUC(0-t) [10]: 34.2 ± 20.3 ng·h/mL | Tmax [10]: 1.53 ± 2.36 h | half-life [10]: 0.5 ± 0.493 h | Cmax (both sexes, Sprague Dawley, rat, plasma, po, 21 mg/kg, read-out: Cmax): 30.5 ± 16.3 ng/mL | MRT last [10]: 1.18 ± 0.399 h | MRT inf [10]: 1.42 ± 0.621 h | AUC(0-inf) [11]: 45.1 ± 55.4 ng·h/mL | AUC(0-t) [11]: 40.7 ± 51.3 ng·h/mL | Tmax [11]: 1.18 ± 1.78 h | half-life [11]: 0.463 ± 0.598 h | Cmax (both sexes, Sprague Dawley, rat, plasma, po, 42 mg/kg, read-out: Cmax): 52.6 ± 78.8 ng/mL | MRT last [11]: 1.1 ± 0.381 h | MRT inf [11]: 1.24 ± 0.292 h | AUC(0-inf) [12]: 145 ± 66.4 ng·h/mL | AUC(0-t) [12]: 140 ± 66.3 ng·h/mL | Tmax [12]: 2.85 ± 4.06 h | half-life [12]: 0.738 ± 0.781 h | MRT last [12]: 2.01 ± 0.451 h | MRT inf [12]: 1.96 ± 1.08 h | Tmax (both sexes, Sprague Dawley, rat, plasma, po, rats, nonclinical p.o. administration studies overall): 1.77 ± 2.64 h | AUC(0-inf) [4]: 14800 ± 7280 ng·h/mL | AUC(0-t) [4]: 14800 ± 7290 ng·h/mL | Tmax [4]: 0.03 h | half-life [4]: 1.6 ± 0.972 h | Cmax [5]: 70200 ± 60000 ng/mL | AUC(0-inf) [13]: 34.6 ± 31.9 ng·h/mL | AUC(0-t) [13]: 31.9 ± 29.9 ng·h/mL | Tmax [13]: 1.05 ± 0.622 h | half-life [13]: 0.465 ± 0.344 h | Cmax (female, Sprague Dawley, rat, plasma, po, 10.5 mg/kg, read-out: Cmax): 27.2 ± 11.2 ng/mL | AUC(0-inf) [14]: 51.9 ± 15.7 ng·h/mL | AUC(0-t) [14]: 47 ± 15.6 ng·h/mL | Tmax [14]: 1.55 ± 2.49 h | half-life [14]: 0.675 ± 0.57 h | Cmax (female, Sprague Dawley, rat, plasma, po, 21 mg/kg, read-out: Cmax): 31.1 ± 16 ng/mL | AUC(0-inf) [15]: 15.3 ± 11.6 ng·h/mL | AUC(0-t) [15]: 13.3 ± 10.3 ng·h/mL | Tmax [15]: 1.7 ± 2.42 h | half-life [15]: 0.55 ± 0.813 h | Cmax (female, Sprague Dawley, rat, plasma, po, 42 mg/kg, read-out: Cmax): 12.6 ± 9.42 ng/mL | AUC(0-inf) [16]: 142 ± 52.4 ng·h/mL | AUC(0-t) [16]: 137 ± 50.7 ng·h/mL | Tmax [16]: 1.95 ± 3.39 h | half-life [16]: 0.85 ± 0.854 h | Cmax (female, Sprague Dawley, rat, plasma, po, 168 mg/kg, read-out: Cmax): 95.8 ± 54.4 ng/mL | AUC(0-inf) [6]: 21400 ± 6930 ng·h/mL | AUC(0-t) [6]: 21300 ± 7030 ng·h/mL | Tmax [6]: 0.03 h | half-life [6]: 1.65 ± 1.48 h | Cmax [7]: 106000 ± 37600 ng/mL | AUC(0-inf) [17]: 36.9 ± 30.2 ng·h/mL | AUC(0-t) [17]: 33.5 ± 28.8 ng·h/mL | Tmax [17]: 1.95 ± 3.4 h | half-life [17]: 0.19 ± 0.063 h | Cmax (male, Sprague Dawley, rat, plasma, po, 10.5 mg/kg, read-out: Cmax): 36.1 ± 14.9 ng/mL | AUC(0-inf) [18]: 24.8 ± 18 ng·h/mL | AUC(0-t) [18]: 21.4 ± 16.5 ng·h/mL | Tmax [18]: 1.5 ± 2.52 h | half-life [18]: 0.325 ± 0.381 h | Cmax (male, Sprague Dawley, rat, plasma, po, 21 mg/kg, read-out: Cmax): 29.9 ± 18.5 ng/mL | AUC(0-inf) [19]: 74.9 ± 67.6 ng·h/mL | AUC(0-t) [19]: 68.1 ± 62.7 ng·h/mL | Tmax [19]: 0.65 ± 0.762 h | half-life [19]: 0.375 ± 0.354 h | Cmax (male, Sprague Dawley, rat, plasma, po, 42 mg/kg, read-out: Cmax): 92.7 ± 99.4 ng/mL | AUC(0-inf) [20]: 149 ± 84.3 ng·h/mL | AUC(0-t) [20]: 144 ± 80.3 ng·h/mL | Tmax [20]: 3.75 ± 4.85 h | half-life [20]: 0.625 ± 0.781 h | Cmax (male, Sprague Dawley, rat, plasma, po, 168 mg/kg, read-out: Cmax): 113 ± 102 ng/mL | Vd (naringin 10.5 mg kg^-1 p.o. single dose, rat): 174 ± 98.3 L/kg | Vd (naringin 21 mg kg^-1 p.o. single dose, rat): 322 ± 239 L/kg | Vd (naringin 42 mg kg^-1 p.o. single dose, rat): 586 ± 394 L/kg | Cmax [21]: 104 ± 77.5 ng/mL | Vd [21]: 639 ± 657 L/kg
